Test [1] deals with T1, Nitric oxide synthase, inducible (Homo sapiens, UniProt P35228). Kind of test: Inhibition of cloned (from RNA) human inducible nitric oxide synthase (hiNOS).
For test [2], the target named is T2, Nitric oxide synthase 3 (Homo sapiens, UniProt P29474).
T2 sequence (P29474 whole entry): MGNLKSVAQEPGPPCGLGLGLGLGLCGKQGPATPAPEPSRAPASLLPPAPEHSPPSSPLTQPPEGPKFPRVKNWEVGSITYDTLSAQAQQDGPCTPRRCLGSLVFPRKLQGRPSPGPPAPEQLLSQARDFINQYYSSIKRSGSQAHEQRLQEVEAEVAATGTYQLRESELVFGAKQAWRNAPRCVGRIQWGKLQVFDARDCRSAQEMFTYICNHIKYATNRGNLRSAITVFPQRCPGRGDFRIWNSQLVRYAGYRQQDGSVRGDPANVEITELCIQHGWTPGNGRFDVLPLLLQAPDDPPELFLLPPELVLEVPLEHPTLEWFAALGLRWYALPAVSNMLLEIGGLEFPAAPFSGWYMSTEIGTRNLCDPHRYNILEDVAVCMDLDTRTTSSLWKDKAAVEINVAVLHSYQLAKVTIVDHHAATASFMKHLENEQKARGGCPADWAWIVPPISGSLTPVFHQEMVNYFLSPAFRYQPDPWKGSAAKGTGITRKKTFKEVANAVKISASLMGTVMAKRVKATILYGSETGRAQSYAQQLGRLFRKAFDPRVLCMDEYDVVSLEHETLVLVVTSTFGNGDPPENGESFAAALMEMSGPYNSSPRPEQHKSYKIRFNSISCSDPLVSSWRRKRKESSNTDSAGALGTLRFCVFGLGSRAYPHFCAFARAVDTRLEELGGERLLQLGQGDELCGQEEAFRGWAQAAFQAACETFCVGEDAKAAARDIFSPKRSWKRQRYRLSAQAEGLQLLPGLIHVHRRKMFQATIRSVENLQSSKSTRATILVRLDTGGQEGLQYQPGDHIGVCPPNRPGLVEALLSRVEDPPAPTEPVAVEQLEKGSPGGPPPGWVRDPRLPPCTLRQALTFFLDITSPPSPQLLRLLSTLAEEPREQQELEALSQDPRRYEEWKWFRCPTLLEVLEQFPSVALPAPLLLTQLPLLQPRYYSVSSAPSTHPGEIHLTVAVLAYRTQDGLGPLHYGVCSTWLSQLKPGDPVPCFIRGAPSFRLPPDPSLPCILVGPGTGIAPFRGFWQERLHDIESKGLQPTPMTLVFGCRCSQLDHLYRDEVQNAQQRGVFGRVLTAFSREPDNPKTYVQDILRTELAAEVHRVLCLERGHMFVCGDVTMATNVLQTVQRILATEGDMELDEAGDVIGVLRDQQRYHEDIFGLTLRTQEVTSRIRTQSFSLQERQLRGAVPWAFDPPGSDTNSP
Kind of test: Inhibition of cloned (from RNA) human endothelial constitutive Endothelial nitric oxide synthase (heNOS).

The target of test [3] is T3, Nitric oxide synthase 1 (Homo sapiens, UniProt P29475). Kind of test: Inhibition of cloned (from RNA) human Neuronal nitric oxide synthase.
T3 sequence (P29475 whole entry): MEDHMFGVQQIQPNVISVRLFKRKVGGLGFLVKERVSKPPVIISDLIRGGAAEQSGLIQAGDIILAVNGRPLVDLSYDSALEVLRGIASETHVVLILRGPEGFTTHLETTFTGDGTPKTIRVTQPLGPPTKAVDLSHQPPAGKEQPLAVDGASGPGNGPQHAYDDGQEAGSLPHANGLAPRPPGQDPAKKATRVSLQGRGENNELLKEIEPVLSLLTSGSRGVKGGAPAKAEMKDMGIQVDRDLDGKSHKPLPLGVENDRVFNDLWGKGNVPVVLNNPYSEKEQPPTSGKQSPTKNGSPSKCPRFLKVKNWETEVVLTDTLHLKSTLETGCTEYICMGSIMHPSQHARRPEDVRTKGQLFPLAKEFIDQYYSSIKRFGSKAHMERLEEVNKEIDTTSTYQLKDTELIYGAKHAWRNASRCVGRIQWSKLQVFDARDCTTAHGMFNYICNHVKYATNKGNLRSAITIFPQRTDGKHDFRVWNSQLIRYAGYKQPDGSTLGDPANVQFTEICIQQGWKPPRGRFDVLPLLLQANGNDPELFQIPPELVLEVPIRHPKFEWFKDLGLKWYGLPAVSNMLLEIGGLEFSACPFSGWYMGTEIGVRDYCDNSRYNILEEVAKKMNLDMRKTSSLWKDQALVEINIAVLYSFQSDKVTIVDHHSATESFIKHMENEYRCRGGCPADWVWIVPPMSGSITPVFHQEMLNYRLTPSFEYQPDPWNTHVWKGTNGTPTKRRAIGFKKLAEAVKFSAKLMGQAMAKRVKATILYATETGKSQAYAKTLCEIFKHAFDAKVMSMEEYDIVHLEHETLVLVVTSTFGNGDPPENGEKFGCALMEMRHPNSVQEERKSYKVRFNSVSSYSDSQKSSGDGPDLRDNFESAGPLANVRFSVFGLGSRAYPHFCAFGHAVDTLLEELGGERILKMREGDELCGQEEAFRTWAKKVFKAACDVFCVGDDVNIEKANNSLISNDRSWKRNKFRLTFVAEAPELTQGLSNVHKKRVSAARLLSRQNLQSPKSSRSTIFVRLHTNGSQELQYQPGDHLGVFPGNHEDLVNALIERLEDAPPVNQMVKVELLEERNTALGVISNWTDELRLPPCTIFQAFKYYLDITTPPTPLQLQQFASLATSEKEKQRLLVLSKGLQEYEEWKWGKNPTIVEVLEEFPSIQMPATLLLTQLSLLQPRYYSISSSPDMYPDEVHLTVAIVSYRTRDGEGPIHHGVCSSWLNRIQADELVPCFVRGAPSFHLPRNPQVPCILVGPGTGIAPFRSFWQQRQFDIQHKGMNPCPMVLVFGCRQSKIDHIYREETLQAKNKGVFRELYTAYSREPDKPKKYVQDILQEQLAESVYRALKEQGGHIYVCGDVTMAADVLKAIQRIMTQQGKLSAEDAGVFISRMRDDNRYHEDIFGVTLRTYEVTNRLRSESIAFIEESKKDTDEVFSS
In test [4] the target is T3, Nitric oxide synthase 1. Kind of test: Inhibition of cloned (from RNA) human Neuronal nitric oxide synthase at 100 uM.
Test [5] addresses T4, Nitric oxide synthase 3 (Homo sapiens) (UniProt P29474).
T4 sequence (whole entry): T2 sequence (P29474 whole entry)
Kind of test: Inhibition of cloned (from RNA) human endothelial constitutive Endothelial nitric oxide synthase (heNOS)at 100 uM.

Test [6] concerns the target T1, Nitric oxide synthase, inducible. Briefly: Inhibition of cloned (from RNA) human inducible nitric oxide synthase (hiNOS) at 100 uM.
Test [7] addresses T4, Nitric oxide synthase 3 (Homo sapiens). Briefly: Inhibition of cloned (from RNA) human endothelial constitutive Endothelial nitric oxide synthase (heNOS) at 100 uM.
In test [8] the target is T1, Nitric oxide synthase, inducible. Briefly: Inhibition of cloned (from RNA) human inducible nitric oxide synthase (hiNOS)at 100 uM.

T1 sequence (P35228 whole entry): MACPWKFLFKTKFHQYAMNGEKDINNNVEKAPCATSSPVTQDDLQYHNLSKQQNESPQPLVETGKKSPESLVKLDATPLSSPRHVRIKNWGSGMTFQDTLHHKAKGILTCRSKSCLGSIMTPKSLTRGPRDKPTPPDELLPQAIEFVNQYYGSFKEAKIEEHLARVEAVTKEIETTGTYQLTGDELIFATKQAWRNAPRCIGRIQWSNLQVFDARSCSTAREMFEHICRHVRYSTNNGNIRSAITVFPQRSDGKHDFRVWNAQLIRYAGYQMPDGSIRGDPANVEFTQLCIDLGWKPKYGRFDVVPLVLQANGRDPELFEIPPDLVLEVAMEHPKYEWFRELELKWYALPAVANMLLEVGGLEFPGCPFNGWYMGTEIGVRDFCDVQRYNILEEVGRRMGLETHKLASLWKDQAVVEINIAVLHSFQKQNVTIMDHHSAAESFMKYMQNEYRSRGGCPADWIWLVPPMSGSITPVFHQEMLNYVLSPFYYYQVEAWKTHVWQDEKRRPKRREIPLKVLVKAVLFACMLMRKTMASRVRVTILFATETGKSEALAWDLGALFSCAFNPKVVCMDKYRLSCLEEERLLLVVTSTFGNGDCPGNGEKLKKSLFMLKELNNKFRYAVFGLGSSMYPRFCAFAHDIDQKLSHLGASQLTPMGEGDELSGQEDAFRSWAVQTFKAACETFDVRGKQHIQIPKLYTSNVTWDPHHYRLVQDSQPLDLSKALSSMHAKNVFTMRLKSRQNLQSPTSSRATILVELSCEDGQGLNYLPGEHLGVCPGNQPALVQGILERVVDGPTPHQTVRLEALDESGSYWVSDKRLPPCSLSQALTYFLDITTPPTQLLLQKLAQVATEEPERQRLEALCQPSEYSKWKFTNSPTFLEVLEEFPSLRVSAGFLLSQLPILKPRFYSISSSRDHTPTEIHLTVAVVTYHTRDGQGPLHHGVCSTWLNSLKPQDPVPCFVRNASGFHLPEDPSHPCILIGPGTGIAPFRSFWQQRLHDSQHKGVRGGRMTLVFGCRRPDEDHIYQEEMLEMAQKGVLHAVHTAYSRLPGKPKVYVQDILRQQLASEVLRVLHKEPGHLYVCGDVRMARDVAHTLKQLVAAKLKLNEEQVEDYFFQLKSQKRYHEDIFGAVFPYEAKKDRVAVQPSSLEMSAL

The IC50 is the point on the concentration scale where inhibition reaches its midpoint. Take `CCCC1N=C(N)CC1C` (stereo unspecified): the values for the IC50 in test [1], in test [2] and in test [3] were 0.3 µM, 3.5 µM and 0.39 µM, respectively.

For `CC1CN=C(N)C1` (stereo unspecified), the IC50 came out at 1.4 µM in test [1], 14.2 µM in test [2] and 4.7 µM in test [3].

For the compound `CCC1CN=C(N)C1` (stereo unspecified), the results for the IC50 in test [1], in test [2] and in test [3] were 3.4 µM, 29.8 µM and 5.46 µM, respectively.

For `CC1CCN=C1N` (stereo unspecified), the IC50 in test [1] amounted to 11.3 µM; in test [2] it was 9.1 µM; in test [3], 3 µM.

For `CCC1N=C(N)CC1C` (stereo unspecified), the IC50 turned out to be 0.17 µM in test [1], 1.6 µM in test [2] and 0.17 µM in test [3].

With `CCCCC1N=C(N)CC1C` (stereo unspecified), the results for the IC50 in test [1], in test [2] and in test [3] were 0.66 µM, 23.6 µM and 0.85 µM, respectively.

Turning to `CC1CCC(N)=N1` (stereo unspecified), the IC50 in test [1] was 10.2 µM; in test [2], 24.9 µM; in test [3], 9.8 µM.

One may read the inhibition as the percentage by which the read-out fell short of the control. A low value points to a response near the control. As to `CC1(C)CC(N)=NC1Cc1ccccc1` (stereo unspecified), the results for the inhibition in test [4], in test [5] and in test [6] were 17%, 3% and 12%, respectively.

As to `CCCCCC1N=C(N)CC1(C)C` (stereo unspecified), the values for the inhibition in test [4], in test [7] and in test [8] were 46%, 17% and 64%, respectively.

For `NC1=NC(Cc2ccccc2)CC1` (stereo unspecified), the inhibition worked out at 47% in test [4], 16% in test [7] and 26% in test [6].

On to `CCCCCC1N=C(N)CC1C` (stereo in doubt; 9), for which the figures for the IC50 in test [1], in test [2] and in test [3] were 0.91 µM, 47.5 µM and 1.31 µM, respectively.

As for `CCCCCC1N=C(N)CC1C` (stereo in doubt; 10), the values for the IC50 in test [1], in test [2] and in test [3] were 0.36 µM, 243 µM and 5.37 µM, respectively.

As for `CC1CC(N)=NC1Cc1ccccc1` (stereo in doubt; 11), the IC50 was found to be 3 µM in test [1], 458 µM in test [2] and 8.29 µM in test [3].

For the compound `CCCCCC1N=C(N)CC1C(F)(F)F` (stereo in doubt; 13), the IC50 was 10 µM in test [1], 336 µM in test [2] and 9.05 µM in test [3].

For `CCCCCC1N=C(N)CC1C(F)(F)F` (stereo in doubt; 14), the half-maximal inhibitory concentration (IC50) in test [1] is 0.81 µM; in test [2] it was 392 µM; in test [3], 5.44 µM.

Regarding `CC1CC(N)=NC1Cc1ccccc1` (stereo in doubt; 16), the IC50 in test [1] came to 14 µM; in test [2] it was 639 µM; in test [3] it was 11.2 µM.

As for `NC1=NC(Cc2ccccc2)C(C(F)(F)F)C1` (stereo in doubt; 17), the values for the IC50 in test [1], in test [2] and in test [3] were 22 µM, 1010 µM and 12.1 µM, respectively.

Take `NC1=NC(Cc2ccccc2)C(C(F)(F)F)C1` (stereo in doubt; 18): the IC50 in test [1] turned out to be 74 µM; in test [2], 2920 µM; in test [3], 38.3 µM.

With `CCCCCC1N=C(N)CC1C` (stereo in doubt; 20), the IC50 in test [1] was 0.25 µM; in test [2] it was 226 µM; in test [3] it was 3.2 µM.

Turning to `CCCCCC1N=C(N)CC1C` (stereo in doubt; 21), the values for the IC50 in test [1], in test [2] and in test [3] were 4.5 µM, 578 µM and 20.6 µM, respectively.

Consider `CCCCCC1N=C(N)CC1C(F)(F)F` (stereo in doubt; 22), for which the IC50 in test [1] stood at 0.23 µM; in test [2], 212 µM; in test [3], 2.53 µM.

Consider `CCCCCC1N=C(N)CC1C(F)(F)F` (stereo in doubt; 23), for which the IC50 is 7.5 µM in test [1], 1680 µM in test [2] and 45.7 µM in test [3].
